Assay results: patent US8217066B2, “Compounds as lysophosphatidic acid receptor antagonists” (Amira Pharmaceuticals, Inc., priority 2009, dated 2012)

Key:
[1] = target: T1, human LPA1 (Homo sapiens, UniProt Q92633); experiment: LPA1 calcium flux assay (HLPA1 Ca Flux); type: cell-based; conditions: CHO cells stably expressing human LPA1, stimulated with 10 nM LPA
T1 construct: the full-length cDNA for human LPA1 was obtained by PCR of the reverse transcription reaction; expressed in transfected cells
Procedure: A 1.1 kb cDNA encoding the human LPA1 receptor was cloned from human lung. Human lung RNA (Clontech Laboratories, Inc. USA) was reverse transcribed using the RETROscript kit (Ambion, Inc.) and the full-length cDNA for human LPA1 was obtained by PCR of the reverse transcription reaction. The nucleotide sequence of the cloned human LPA1 was determined by sequencing and confirmed to be identical to the published human LPA1 sequence (An et al. Biochem. Biophys. Res. Commun. 231:619 (1997). The cDNA was cloned into the pcDNA5/FRT expression plasmid and transfected in CHO cells using lipofectamine 2000 (Invitrogen Corp., USA). Clones stably expressing human LPA1 were selected using hygromycin and identified as cells that show Ca-influx in response to LPA.
Human LPA1 or LPA3 expressing CHO cells are seeded at 20,000-45,000 cells per well in a 96-well poly-D-lysine coated plate one or two days before the assay. Prior to the assay, the cells are washed once with PBS and then cultured in serum-free media overnight. On the day of the assay, a calcium indicator dye (Calcium 4, Molecular Devices) in assay buffer (HBSS with Ca^2+ and Mg^2+ and containing 20 mM Hepes and 0.3% fatty-acid free human serum albumin) is added to each well and incubation continued for 1 hour at 37° C. […] of test compounds in 2.5% DMSO are added to the cells and incubation continued at room temperature for 30 minutes. Cells are the stimulated by the addition of 10 nM LPA and intracellular Ca^2+ measured using the Flexstation 3 (Molecular Devices). IC50s are determined using Graphpad prism analysis of drug titration curves.

[2] = tested on: A2058 human melanoma cells; experiment: LPA1 chemotaxis assay; type: cell-based; conditions: 100 nM LPA, read-out: inhibition of LPA-driven chemotaxis, IC50
Procedure: Chemotaxis of the A2058 human melanoma cells was measured using the Neuroprobe ChemoTx® System plates (8 μm pore size, 5.7 mm diameter sites). The filter sites were coated with 0.001% fibronectin (Sigma) in 20 mM Hepes, pH 7.4 and allowed to dry. A2058 cells were serum-starved for 24 hours, then harvested with Cell Stripper and resuspended in DMEM containing 0.1% fatty-acid-free bovine serum albumin (BSA) to a concentration of 1×10^6/ml. Cells were mixed with an equal volume of test compound (2×) in DMEM containing 0.1% fatty-acid-free BSA and incubated at 37° C. for 15 minutes. LPA (100 nM in DMEM containing 0.1% fatty-acid-free BSA) or vehicle was added to each well of the lower chamber and 50 μl of the cell suspension/test compound mix was applied to the upper portion of the ChemoTx plate. Plates were incubated at 37° C. for three hours and then the cells removed from the upper portion by rinsing with PBS and scraping. The filter was dried then stained with HEMA 3 Staining System (Fisher Scientific). The absorbance of the filter was read at 590 nm and IC50s were determined using Symyx Assay Explorer.

[3] = tested on: pancreatic cancer cell lines; conditions: cited from earlier work
[4] = tested on: LPA receptor; conditions: compared with LPA1 (−/−) mice, in which renal fibrosis was significantly attenuated; cited from earlier work
[5] = tested on: highly peritoneal metastatic pancreatic cancer cell line; conditions: cited from earlier work

T1 sequence (Q92633 whole entry): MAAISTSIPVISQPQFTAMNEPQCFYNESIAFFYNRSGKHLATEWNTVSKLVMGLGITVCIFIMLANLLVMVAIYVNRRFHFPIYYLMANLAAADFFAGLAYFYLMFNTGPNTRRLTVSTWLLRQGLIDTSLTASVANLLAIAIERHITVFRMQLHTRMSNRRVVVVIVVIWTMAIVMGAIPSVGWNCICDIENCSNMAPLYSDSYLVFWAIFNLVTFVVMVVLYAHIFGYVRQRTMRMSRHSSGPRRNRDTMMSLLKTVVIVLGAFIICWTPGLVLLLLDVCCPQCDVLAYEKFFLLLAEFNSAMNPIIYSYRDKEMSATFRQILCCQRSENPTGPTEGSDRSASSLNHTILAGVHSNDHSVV

IC50 [1] [nM]	IC50 [2] [nM]	SMILES	also measured
	< 100	Cc1noc(-c2ccc(-c3ccc(C4(C(=O)O)CC4)cc3)cc2)c1C(O)COCc1ccccc1 (single isomer, unassigned) [Compound 47, 1-{4′-[4-(2-Benzyloxy-1-hydroxy-ethyl)-3-methyl-isoxazol-5-yl]-biphenyl-4-yl}-cyclopropanecarboxylic acid]	
< 300	< 100	Cc1noc(-c2ccc(-c3ccc(C4(C(=O)NS(C)(=O)=O)CC4)cc3)cc2)c1[C@H](O)COCc1ccccc1 [Compound 73, N-(1-{4′-[4-((S)-2-Benzyloxy-1-hydroxy-ethyl)-3-methyl-isoxazol-5-yl]-biphenyl-4-yl}-cyclopropanecarbonyl)-methanesulfonamide]	
< 300	< 100	Cc1noc(-c2ccc(-c3ccc(C4(C(=O)O)CC4)cc3)cc2)c1CC(F)(F)CCc1ccccc1 [Compound 21, 1-{4′-[4-(2,2-Difluoro-4-phenyl-butyl)-3-methyl-isoxazol-5-yl]-biphenyl-4-yl}-cyclopropanecarboxylic acid]	
	< 100	Cc1noc(-c2ccc(-c3ccc(C4(C(=O)O)CC4)cc3)cc2)c1NC(C)CCc1ccccc1 (single isomer, unassigned) [Compound 51, 1-{4′-[3-Methyl-4-(1-methyl-3-phenyl-propylamino)-isoxazol-5-yl]-biphenyl-4-yl}-cyclopropanecarboxylic acid]	
< 300	< 100	Cc1noc(-c2ccc(-c3ccc(C4(C(=O)NS(C)(=O)=O)CC4)cc3)cc2)c1C(O)C(F)(F)CCc1ccccc1 (stereo not drawn) [Compound 76, N-(1-{4′-[4-(2,2-Difluoro-1-hydroxy-4-phenyl-butyl)-3-methyl-isoxazol-5-yl]-biphenyl-4-yl}-cyclopropanecarbonyl)-methanesulfonamide]	
< 300	< 100	Cc1noc(-c2ccc(-c3ccc(C4(C(=O)NS(C)(=O)=O)CC4)cc3)cc2)c1[C@H](O)CSCc1ccccc1 [Compound 77, N-(1-{4′-[4-((S)-2-Benzylsulfanyl-1-hydroxy-ethyl)-3-methyl-isoxazol-5-yl]-biphenyl-4-yl}-cyclopropanecarbonyl)-methanesulfonamide]	
< 300		Cc1noc(-c2ccc(-c3ccc(C4(C(=O)O)CC4)cc3)cc2)c1C(O)CSCc1cccc(C(F)(F)F)c1 (stereo not drawn) [Compound 63, 1-(4′-{4-[1-Hydroxy-2-(3-trifluoromethyl-benzylsulfanyl)-ethyl]-3-methyl-isoxazol-5-yl}-biphenyl-4-yl)-cyclopropanecarboxylic acid]	
< 300		Cc1noc(-c2ccc(-c3ccc(C4(C(=O)O)CC4)cc3)cc2)c1C(O)CCc1cccc(C(F)(F)F)c1 (stereo not drawn) [Compound 35, 1-(4′-{4-[1-Hydroxy-3-(3-trifluoromethyl-phenyl)-propyl]-3-methyl-isoxazol-5-yl}-biphenyl-4-yl)-cyclopropanecarboxylic acid]	

Further lines, the compound ahead of its results:

SMILES	IC50 [1] [nM]	IC50 [2] [nM]	also measured
Cc1noc(-c2ccc(-c3ccc(C4(C(=O)O)CC4)cc3)cc2)c1[C@H](O)CSCc1ccccc1 [Compound 65, 1-{4′-[4-((S)-2-Benzylsulfanyl-1-hydroxy-ethyl)-3-methyl-isoxazol-5-yl]-biphenyl-4-yl}-cyclopropanecarboxylic acid]	< 300	< 100	
Cc1noc(-c2ccc(-c3ccc(C4(C(=O)O)CC4)cc3)cc2)c1NC(C)CCc1cccc(Cl)c1 (stereo not drawn) [Compound 41, 1-(4′-{4-[3-(3-Chloro-phenyl)-1-methyl-propylamino]-3-methyl-isoxazol-5-yl}-biphenyl-4-yl)-cyclopropanecarboxylic acid]		< 100	
Cc1noc(-c2ccc(-c3ccc(C4(C(=O)O)CC4)cc3)cc2)c1C(O)CSCc1ccccc1 (stereo not drawn) [Compound 38, 1-{4′-[4-(2-Benzylsulfanyl-1-hydroxy-ethyl)-3-methyl-isoxazol-5-yl]-biphenyl-4-yl}-cyclopropanecarboxylic acid]	< 300	< 100	
Cc1noc(-c2ccc(-c3ccc(C4(C(=O)O)CC4)cc3)cc2)c1NC(C)CCc1ccc(Cl)cc1 (stereo not drawn) [Compound 54, 1-(4′-{4-[3-(4-Chloro-phenyl)-1-methyl-propylamino]-3-methyl-isoxazol-5-yl}-biphenyl-4-yl)-cyclopropanecarboxylic acid]	< 300	< 100	
Cc1noc(-c2ccc(-c3ccc(C4(C(=O)O)CC4)cc3)cc2)c1NC(C)CCc1ccccc1 (stereo not drawn) [Compound 4, 1-{4′-[3-Methyl-4-(1-methyl-3-phenyl-propylamino)-isoxazol-5-yl]-biphenyl-4-yl}-cyclopropanecarboxylic acid]		< 100	
Cc1noc(-c2ccc(-c3ccc(C4(C(=O)NS(C)(=O)=O)CC4)cc3)cc2)c1[C@H](O)CO[C@H](C)c1ccccc1 [Compound 72, N-[1-(4′-{4-[(S)-1-Hydroxy-2-((R)-1-phenyl-ethoxy)-ethyl]-3-methyl-isoxazol-5-yl]-biphenyl-4-yl)-cyclopropanecarbonyl}-methanesulfonamide]	< 300	< 100	
Cc1noc(-c2ccc(-c3ccc(C4(C(=O)O)CC4)cc3)cc2)c1NC(C)CCc1cccc(F)c1 (stereo not drawn) [Compound 30, 1-(4′-{4-[3-(3-Fluoro-phenyl)-1-methyl-propylamino]-3-methyl-isoxazol-5-yl}-biphenyl-4-yl)-cyclopropanecarboxylic acid]	< 300	< 100	
Cc1noc(-c2ccc(-c3ccc(C4(C(=O)O)CC4)cc3)cc2)c1NC(C)CCc1cccc(Cl)c1 (single isomer, unassigned) [Compound 57, 1-(4′-{4-[3-(3-Chloro-phenyl)-1-methyl-propylamino]-3-methyl-isoxazol-5-yl}-biphenyl-4-yl)-cyclopropanecarboxylic acid]		< 100	
Cc1noc(-c2ccc(-c3ccc(C4(C(=O)O)CC4)cc3)cc2)c1[C@H](O)CO[C@H](C)c1ccccc1 [Compound 49, 1-(4′-{4-[(5)-1-Hydroxy-2-((R)-1-phenyl-ethoxy)-ethyl]-3-methyl-isoxazol-5-yl}-biphenyl-4-yl)-cyclopropanecarboxylic acid]	< 300	< 100	
Cc1noc(-c2ccc(CSCCC(=O)O)cc2)c1NC(=O)OC(C)c1ccccc1Cl (stereo not drawn) [Ki16425]			in vitro migration in response to LPA and peritoneal fluid (ascites) from pancreatic cancer patients [3]: effectively blocked; development of renal fibrosis in UUO mice [4]: closely resembled the LPA1 (−/−) mice; LPA-induced and ascites-induced invasion activity [5]: blocked
Cc1noc(-c2ccc(-c3ccc(C4(C(=O)O)CC4)cc3)cc2)c1C(O)COCc1ccccc1 (stereo not drawn) [Compound 42, 1-{4′-[4-(2-Benzyloxy-1-hydroxy-ethyl)-3-methyl-isoxazol-5-yl]-biphenyl-4-yl}-cyclopropanecarboxylic acid]		< 100	
Cc1noc(-c2ccc(-c3ccc(C4(C(=O)O)CC4)cc3)cc2)c1NCC(C)Cc1ccc(C(C)C)cc1 (stereo not drawn) [Compound 3, 1-(4′-{4-[3-(4-Isopropyl-phenyl)-2-methyl-propylamino]-3-methyl-isoxazol-5-yl}-biphenyl-4-yl)-cyclopropanecarboxylic acid]	300 to 1000		
Cc1noc(-c2ccc(-c3ccc(C4(C(=O)O)CC4)cc3)cc2)c1C(O)C(F)(F)CCc1ccc(F)cc1 (stereo not drawn) [Compound 62, 1-(4′-{4-[2,2-Difluoro-4-(4-fluoro-phenyl)-1-hydroxy-butyl]-3-methyl-isoxazol-5-yl}-biphenyl-4-yl)-cyclopropanecarboxylic acid]	< 300		
